Measured values from PMC8791529, “Schistosoma mansoni α-N-acetylgalactosaminidase (SmNAGAL) regulates coordinated parasite movement and egg production” (PLoS Pathogens, 2022).

Molecular target: T1, SmNAGAL (Smp_089290) (Schistosoma mansoni, UniProt A0A8F5XXF6)
T1 construct: gene NAGAL; native enzyme in soluble worm antigen preparation (SWAP) of adult worms, not purified; assigned by siRNA knockdown
Assay: colorimetric hydrolysis at […] nm in worm extract, with siRNA knockdown
Format: biochemical
Conditions: 0.15 M McIlvaine buffer pH 4.6, 37 °C, 60 min; SWAP of siLuc and siSmp_089290 worms

CC(=O)N[C@H]1[C@@H](Oc2ccc([N+](=O)[O-])cc2)O[C@H](CO)[C@H](O)[C@@H]1O [4-Nitrophenyl N-acetyl-α-D-galactosaminide]
colorimetric hydrolysis at 410 nm in worm extract, with siRNA knockdown: smnagal depletion in siRNA-treated worms significantly reduced α-NAGAL activity in SWAP
